# Laboratory results from publication PMC11859928, “Design, Synthesis, and Antiproliferative Activity of Novel Indole/1,2,4-Triazole Hybrids as Tubulin Polymerization Inhibitors” (Pharmaceuticals, 2025).
# Experiments:
# [1] = test system: SF-268; assay: NCI five-dose assay; type: cell-based, human; conditions: Homo sapiens, SF-268, CNS cancer
# [2] = test system: Breast cancer subpanel; assay: NCI five-dose assay, subpanel mean; type: cell-based, human
# [3] = test system: HCC-2998; assay: NCI five-dose assay; type: cell-based, human; conditions: HCC-2998, Colon cancer
# [4] = test system: Leukemia subpanel; assay: NCI five-dose assay, subpanel mean; type: cell-based, human
# [5] = test system: HCT-15; assay: NCI five-dose assay; type: cell-based, human; conditions: HCT-15, Colon cancer
# [6] = test system: Non-small cell lung cancer subpanel; assay: NCI five-dose assay, subpanel mean; type: cell-based, human
# [7] = test system: M14; assay: NCI five-dose assay; type: cell-based, human; conditions: M14, Melanoma
# [8] = test system: MDA-MB 231 breast cancer cells; assay: Cell cycle analysis; type: cell-based; conditions: MDA-MB 231, 24 h, IC50 concentration of 7i
# Description: The impact of compound 7i on cell cycle progression was investigated in MDA-MB 231 breast cancer cells. […] The cell line was handled with PI/Annexin V, and flow cytometry was utilizing a BD FACS Caliber. […] This indicates a cell cycle arrest at the G1 phase transition.
# (§1) The MDA-MB231 breast cancer cell line was used for cell cycle study and apoptosis detection. The assay was performed as previously documented (Appendix A).
# [9] = test system: NCI-H460; assay: NCI five-dose assay; type: cell-based, human; conditions: NCI-H460, Non-small cell lung cancer
# [10] = test system: MDA-MB 231 cell; assay: Apoptosis induction assay (Annexin V/PI); type: cell-based; conditions: MDA-MB 231, 24 h
# Description: The MDA-MB 231 cell was labeled with Annexin V/PI, cultured for 24 h, and examined to assess the capacity of 7i to induce apoptosis.
# as §1
# [11] = test system: Melanoma subpanel; assay: NCI five-dose assay, subpanel mean; type: cell-based, human
# [12] = test system: HCT-116; assay: NCI five-dose assay; type: cell-based, human; conditions: HCT-116, Colon cancer
# [13] = test system: SK-OV-3; assay: NCI five-dose assay; type: cell-based, human; conditions: SK-OV-3, Ovarian cancer
# [14] = test system: SNB-75; assay: NCI five-dose assay; type: cell-based, human; conditions: SNB-75, CNS cancer
# [15] = Homo sapiens, 48 h, read-out: LC50 (the source's name)
# [16] = Homo sapiens, read-out: GI50 Conc. per Cell Lines
structure (smiles),measurement,setting,value
"O/N=C(\CSc1nnc(-c2c[nH]c3ccccc23)n1-c1ccccc1)c1ccc(Br)cc1 [Compound 7i, (Z)-2-((5-(1H-Indol-3-yl)-4-phenyl-4H-1,2,4-triazol-3-yl)thio)-1-(4-bromophenyl) Ethanone Oxime]",CC50,"[1]; 48 h, read-out: LC50 (the source's name)",> 100 µM
same,GI50,[1]; read-out: GI50 Conc. per Cell Lines,2.37 µM
same,GI50 Selectivity Ratio (MID a/MID b),[2]; Breast cancer subpanel,1.02
same,GI50,"[2]; Homo sapiens, average sensitivity of all cell lines of the Breast cancer subpanel, read-out: GI50 Subpanel MID b",2.73 µM
same,TGI Conc. per Cell Lines,[3],12.30 µM
same,CC50,[3]; [15],35.8 µM
same,GI50,[3]; [16],3.36 µM
same,GI50,"[4]; Homo sapiens, average sensitivity of all cell lines of the Leukemia subpanel, read-out: GI50 Subpanel MID b",2.29 µM
same,GI50 Selectivity Ratio (MID a/MID b),[4]; Leukemia subpanel,1.22
same,TGI Conc. per Cell Lines,[5],4.72 µM
same,CC50,[5]; [15],12.1 µM
same,GI50,[5]; [16],2.11 µM
same,GI50,"[6]; Homo sapiens, average sensitivity of all cell lines of the Non-small cell lung cancer subpanel, read-out: GI50 Subpanel MID b",3.23 µM
same,GI50 Selectivity Ratio (MID a/MID b),[6]; Non-small cell lung cancer subpanel,0.87
same,CC50,[7]; [15],> 100 µM
same,GI50,[7]; [16],3.4 µM
same,TGI Conc. per Cell Lines,[7],17.60 µM
same,cells in G0/G1 phase (%DIP G1),[8],83%
same,CC50,[9]; [15],68.4 µM
same,GI50,[9]; [16],3.53 µM
same,TGI Conc. per Cell Lines,[9],12.90 µM
same,necrosis percentage (PI/Annexin upper left quadrant),[10],3.88%
same,GI50,"[11]; Homo sapiens, average sensitivity of all cell lines of the Melanoma subpanel, read-out: GI50 Subpanel MID b",2.89 µM
same,GI50 Selectivity Ratio (MID a/MID b),[11]; Melanoma subpanel,0.97
same,TGI Conc. per Cell Lines,[12],17.40 µM
same,CC50,[12]; [15],> 100 µM
same,GI50,[12]; [16],3.45 µM
same,CC50,[13]; [15],27.4 µM
same,GI50,[13]; [16],2.53 µM
same,TGI Conc. per Cell Lines,[13],6.03 µM
same,CC50,[14]; [15],28.1 µM
same,GI50,[14]; [16],1.87 µM
same,TGI Conc. per Cell Lines,[14],4.95 µM
